US20060167229A1, “Biologically active peptide conjugates” (priority 2002, published 2006)
Marks after values point to notes of the source that are not given here. Ends that are not written are not given here.

How the values were obtained:
Assay type in all cases: in vivo, BALB/c mice
anti-SRBC antibody = test: Sheep Red Blood Cell (SRBC) hemolysis test, antibody formation; conditions: for anti-SRBC antibody formation, X ± SD (Unit): healthy mice, SRBC day 12 (IFN-γ, IL-2 3×10^5 IU/kg/day), saline 32 ± 7; for effect on the synthesis of anti-SRBC antibody upon the antigenic challenge (summary): statistically significant difference from saline in any of the dosage groups 0.5-500 μg/kg/day
Experimental: Sheep red blood cells (SRBC) were prepared by collecting blood from cervical vein and put into a sterile flask with glass beads. The flask was shaken for 3 minutes and the blood then mixed with Alsever solution (glucose 2.05 g, NaCl 0.4 g, […] 0.8 g, adjust to 100 ml with distilled water) and stored at 4° C. Immediately before use, samples were centrifuged at 130 g, 5 minutes to collect the SRBC. The cells were washed two times by re-suspension and centrifugation in normal saline. Then the cell pellet was collected by centrifugation at 180 g for 10 minutes and re-suspended in saline to make the final working SRBC suspension, 2% (v/v).
Complement was prepared by adding 10 volumes of fresh Cavy serum into one volume centrifuge packed SRBC, and then gently shaking for 30 minutes at 4° C. The SRBC was removed by centrifugation at 200 g for 10 minutes. 10 volumes of normal saline were added to obtain the working complement solution.
The test substances were administered as described in section 1.1, plus intraperitoneal injection 0.2 ml SRBC per mouse on day 12. On the day after the last test substance administration (day 16), blood was collected from the eye canthus and left at room temperature for one hour for serum exudation. After centrifugation at 200 g for 10 minutes, the serum was diluted by 500 times with normal saline.
To 1 ml diluted mouse serum of each mouse, 0.5 ml SRBC suspension was added. Ice cold. Then 1 ml working complement solution was added and incubated at 37° C. water bath for 10 minutes. Reactions were terminated by ice cold. Samples were then centrifuged at 200 g for 10 minutes to obtain the supernatant.
To 1 ml of this supernatant, 3 ml Drabkin solution was added and left at room temperature for 10 minutes. OD540 nm was obtained.
Reference OD540 nm was obtained by mixing 0.25 ml SRBC suspension with Drabkin solution to 4 ml and placed at room temperature for 10 minutes before OD540 nm was taken.
Sample serum index=(OD540 nm of test sample÷reference OD540 nm)×500

NK cell = NK cell cytotoxicity activity test (spleen cells of treated mice against YAC-1 target cells, MTT); conditions: for NK cell cytotoxic activity, X ± SD (%): healthy mice; for effect on the cytotoxic activity of NK cells (summary): statistically significant difference from saline in any of the dosage groups 0.5-500 μg/kg/day
Experimental: (§1) The above substances were all dissolved in 0.5 ml saline and injected intraperitoneal (i.p.) for 15 continuous days, once per day.
(§2) Ten mice per group. The day after the last test substance administration, the mice were sacrificed by cervical dislocation. The spleen was isolated aseptically and manually dispersed in cold D-Hank's solution using an injection needle. The dispersed cell suspension was further sieved through a 100 gauge 150 μm diameter stainless steel sieve. After centrifugation at 200 g for 10 minutes, the supernatant was discarded. The cell pellet was re-suspended in 10 volume of Tris-NH4Cl buffer and then kept standing still for 10 minutes at room temperature. The suspended cells were collected by centrifugation at 150 g for 10 minutes. The cells were washed 2-4 times with cold D-Hank's solution by re-suspending and collecting by centrifugation with condition as described above. The washed cells were then diluted to the desired cell densities by RPMI-1640 culture medium, containing 10% fetal bovine serum.
Mice spleen cells were prepared to 4×10^6/ml as described in section 1.1 above. Target cells YAC-1 were brought to log phase and adjusted to 1×10^5/ml. Using a 96 wells cell culture plate, […] were added to the control well containing only the spleen cells; […] and 100 μl culture medium were added to the control well containing only target cells; 100 μl mouse spleen cells and 100 μl target cells were added to the NK activity assay well. Three parallel sets of the above were prepared per mouse.
Samples were centrifuged at 150 g for 10 minutes to collect the cells. The supernatant was discarded and 50 μl/well MTT of 1 mg/ml was added. The reaction-mixture was then shaken for 2 minutes, and incubated at 37° C., 5% CO2 for 4 hours. The supernatant was discarded after centrifugation at 150 g for 10 minutes. […] 40 mM HCl-2-propanol was added and shaken for 3 minutes. An ELISA reader was used to obtain OD570 nm of each well referenced at 630 nm.

thymus gland = test: Immunity organ weight test, thymus gland index; conditions: for weight of thymus gland (thymus gland index), X ± SD (%): healthy mice, saline 0.12 ± 0.02; for effect on the weight of the thymus gland (summary): statistically significant difference from saline in any of the dosage groups 0.5-500 μg/kg/day
Experimental: (§3) One day after the last test substance administration (day 16), the liver, spleen, and thymus gland were separated and blotted dry with filter paper and weighed. The phagocytosis index α was calculated as below: α=(^3√{square root over ( )}K)(W÷WLS)
Thymus gland index (%)=(thymus weight/body weight)×100%

T lymphocyte = T lymphocyte transformation test (ConA-stimulated spleen cells of treated mice, MTT); conditions: for X ± SD (stimulation index): healthy mice, saline 1.3 ± 0.1
Experimental: as §1, §2
Spleen cells of density 1×10^6/ml were placed onto a 96 wells cell culture plate, 100 μL/well, three parallel wells each of the assay sample and control sample per mouse. To the assay wells, 100 μl/well ConA of 100 μg/ml in RPMI-1640 was added, and […] plain RPMI-1640 was used for the controls. The cells were incubated for 66 hrs at 37° C., 5% CO2. The cells were then pelleted by centrifugation at 150 g for 10 minutes.
50 μl/well MTT of 1 mg/ml in RPMI-1640 was added to the cell pellet and the cells re-suspended by shaking for 2 minutes. The incubation was continued for 4 hours. The supernatant was discarded after centrifugation at 150 g for 10 minutes. 120 μl 40 mM HCl-2-propanol was added to the cell pellet and shaken for 3 minutes. […]
Each mouse formed three assay wells and three control wells. The Stimulation Index (SI) of each mouse was obtained by first deriving the average OD of the three parallel wells, then dividing the value of the assay wells by the control wells.

mononuclear phagocyte = test: Carbon particle clearance test, phagocytosis function; design: key to X ± SD (phagocytotic index): α = cube root of K × (body weight ÷ liver+spleen weight)
Experimental: On the next day after the last test substance administration (day 16), the mice were injected with […] body weight India ink (5 times dilution with normal saline) from the tail vein.
One minute and five minutes after Indian ink injection, 20 μl blood was obtained from the eye canthus with a heparinized tubing. The blood was mixed with 2 ml 0.1% w/v Na2CO3 and then OD680 nm obtained. The outline clear index K was calculated by the following formula: K=(lgA1−lgA2)÷(t2−t1)
as §3

spleen = test: Immunity organ weight test, spleen index; conditions: for weight of spleen (spleen index), X ± SD (%): healthy mice, peptide 500 μg/kg/day i.p. 15 days, saline 0.53 ± 0.05; for effect on the weight of the spleen (summary): statistically significant difference from saline in any of the dosage groups 0.5-500 μg/kg/day
Experimental: as §3
Spleen index (%)=(spleen weight/body weight)×100%

[1] = peptide 0.5 μg/kg/day i.p. 15 days
[2] = peptide 5 μg/kg/day i.p. 15 days
[3] = peptide 50 μg/kg/day i.p. 15 days
[4] = peptide 500 μg/kg/day i.p. 15 days
[5] = peptide 500 μg/kg/day i.p. 15 days (IFN-γ, IL-2 3×10^5 IU/kg/day), saline 63 ± 9
[6] = peptide 5 μg/kg/day i.p. 15 days (IFN-γ, IL-2 3×10^5 IU/kg/day)
[7] = peptide 50 μg/kg/day i.p. 15 days (IFN-γ, IL-2 3×10^5 IU/kg/day)
[8] = peptide 500 μg/kg/day i.p. 15 days (IFN-γ, IL-2 3×10^5 IU/kg/day)
[9] = peptide 0.5 μg/kg/day i.p. 15 days (IFN-γ, IL-2 3×10^5 IU/kg/day)
[10] = statistically significant difference from saline in any of the dosage groups 0.5-500 μg/kg/day

Row | Substance | anti-SRBC antibody formation, X ± SD (Unit) (anti-SRBC antibody; [1]) | anti-SRBC antibody formation, X ± SD (Unit) (anti-SRBC antibody; [2]) | anti-SRBC antibody formation, X ± SD (Unit) (anti-SRBC antibody; [3]) | anti-SRBC antibody formation, X ± SD (Unit) (anti-SRBC antibody; [4]) | effect on the synthesis of anti-SRBC antibody upon the antigenic challenge (summary) (anti-SRBC antibody) | NK cell cytotoxic activity, X ± SD (%) (NK cell; [5]) | effect on the cytotoxic activity of NK cells (summary) (NK cell) | weight of thymus gland (thymus gland index), X ± SD (%) (thymus gland; [6]) | weight of thymus gland (thymus gland index), X ± SD (%) (thymus gland; [7]) | weight of thymus gland (thymus gland index), X ± SD (%) (thymus gland; [8]) | effect on the weight of the thymus gland (summary) (thymus gland) | weight of thymus gland (thymus gland index), X ± SD (%) (thymus gland; [9]) | weight of spleen (spleen index), X ± SD (%) (spleen) | effect on the weight of the spleen (summary) (spleen) | further results
1 | Phe Gln Ser Phe (FQSF; printed: Phe Gln Ser Phe) [CMS033] | 78 ± 12*^@ Unit | 128 ± 39*^@^ Unit | 112 ± 15*^@^ Unit | 143 ± 27*^@^ Unit | enhance | 89 ± 8 | increase | 0.20 ± 0.02 % | 0.18 ± 0.03 % | 0.25 ± 0.04*^@^ % | increase | – | – | – | –
2 | VVYPWTQRF [CMS002] | 4 ± 1 Unit | – | – | 87 ± 18*^@ Unit | – | – | increase | 0.24 ± 0.05*^ % | 0.21 ± 0.02*^@^ % | – | increase | 0.26 ± 0.06*^@^ % | – | – | NK cell cytotoxic activity, X ± SD (%) (NK cell; peptide 0.5 μg/kg/day i.p. 15 days (IFN-γ, IL-2 3×10^5 IU/kg/day), saline 58 ± 7): 76 ± 9 %; X ± SD (stimulation index) (T lymphocyte; [7]): 2.6 ± 0.3*^@^; X ± SD (stimulation index) (T lymphocyte; [8]): 1.8 ± 0.3; effect on T lymphocyte transformation (summary) (T lymphocyte; [10]): enhance
3 | Phe Glu Gln Asn Met (FEQNM; printed: Phe Glu Gln Asn Met) [CMS027] | 99 ± 14*^@^ Unit | 117 ± 45*^@^ Unit | 93 ± 11*^@^ Unit | – | enhance | 88 ± 8 | increase | – | 0.21 ± 0.03*^@^ % | 0.20 ± 0.03*^ % | increase | – | 0.37 ± 0.03 | decrease | X ± SD (phagocytotic index) (mononuclear phagocyte; healthy mice, peptide 0.5 μg/kg/day i.p. 15 days (IFN-γ, IL-2 3×10^5 IU/kg/day), saline 5.1 ± 0.6): 6.4 ± 0.6; effect on the phagocytotic activity of mononuclear phagocyte (summary) (mononuclear phagocyte; [10]): enhance
4 | Ala Ala Phe [CMS023] | 108 ± 21*^@^ Unit | 166 ± 27*^@^ Unit | 84 ± 11*^@^ Unit | 110 ± 45*^@^ Unit | enhance | 79 ± 12 | increase | 0.23 ± 0.06 % | 0.20 ± 0.02*^@^ % | – | increase | – | 0.36 ± 0.06 | decrease | –
5 | TTYNSIM [CMS026] | 19 ± 6 Unit | 191 ± 17*^@^ Unit | 98 ± 9*^@^ Unit | – | – | 89 ± 7 | increase | 0.31 ± 0.05*^@^ % | 0.27 ± 0.02*^@^ % | 0.20 ± 0.03*^ % | increase | 0.21 ± 0.05 % | – | – | NK cell cytotoxic activity, X ± SD (%) (NK cell; peptide 50 μg/kg/day i.p. 15 days (IFN-γ, IL-2 3×10^5 IU/kg/day), saline 56 ± 8): 76 ± 9 %
